Laboratory results reported in patent publication US20060009478A1, “Methods for the treatment of back pain” (priority 2003, published 2006).

Legend:
[1] = test system: patients with moderate to severe chronic pain due to osteoarthritis of the hip or knee; test: Quality of analgesia, 3-week osteoarthritis study; type: in vivo, human
Method: Quality of Analgesia was assessed weekly at clinic visits. The patient was prompted with the question, “How would you rate the quality of your pain relief at this time?”, and responses were selected from poor, fair, good, very good, and excellent.
The global assessment, quality of analgesia, and pain control, recorded at the end of each week, were summarized in terms of category proportions.
For secondary analysis of data, pain intensity changes, SF-12, and WOMAC were analyzed with the ANOVA methods as described above. Within treatment arms, weeks were compared in pairwise fashion using paired-sample methods. The global assessments, quality of analgesia ratings, and pain control was analyzed at each week, globally and in pairwise fashion, using the Cocharan-Mantel-Haenszel row mean scores (CMH-RMS) test, using equally spaced scores. An “observed data” analysis, without any data imputation, was conducted on pain intensity changes, global assessments, quality of analgesia ratings, pain control, SF-12, and WOMAC using the same analysis methods described previously.

[2] = test system: patients with moderate to severe chronic low back pain; test: Opioid-associated adverse events (constipation, nausea, vomiting, dizziness, somnolence, pruritus), low back pain study
[3] = ITT (N = 102 per active group), LOCF
[4] = event table, all occurrences, through the treatment period, ITT
[5] = event table, % of total number of events
[6] = through the treatment period, ITT population

`COc1ccc2c3c1O[C@H]1C(=O)CC[C@@]4(O)[C@@H](C2)N(C)CC[C@]314` [OXY QID, oxycodone] was tested, and the “Quality of analgesia Week 1: EXCELLENT (4), number (%) of patients” value [1, 3] was 3 (2.9%), the “Quality of analgesia Week 1: FAIR (1), number (%) of patients” value [1, 3] was 31 (30.4%) and the “Quality of analgesia Week 1: GOOD (2), number (%) of patients” value [1, 3] was 18 (37.3%). The “Quality of analgesia Week 1: POOR (0), number (%) of patients” value [1, 3] was 18 (17.6%), the “Quality of analgesia Week 1: VERY GOOD (3), number (%) of patients” value [1, 3] was 8 (7.8%) and the “Quality of analgesia Week 2: EXCELLENT (4), number (%) of patients” value [1, 3] was 4 (3.9%). For the same compound, the “Quality of analgesia Week 2: FAIR (1), number (%) of patients” value [1, 3] was 29 (28.4%), the “Quality of analgesia Week 2: GOOD (2), number (%) of patients” value [1, 3] was 30 (29.4%) and the “Quality of analgesia Week 2: POOR (0), number (%) of patients” value [1, 3] was 19 (18.6%). The “Quality of analgesia Week 2: VERY GOOD (3), number (%) of patients” value [1, 3] was 16 (15.7%), the “Quality of analgesia Week 3: EXCELLENT (4), number (%) of patients” value [1, 3] was 5 (4.9%) and the “Quality of analgesia Week 3: FAIR (1), number (%) of patients” value [1, 3] was 23 (22.5%). The “Quality of analgesia Week 3: GOOD (2), number (%) of patients” value [1, 3] was 32 (31.4%), the “Quality of analgesia Week 3: POOR (0), number (%) of patients” value [1, 3] was 23 (22.5%) and the “Quality of analgesia Week 3: VERY GOOD (3), number (%) of patients” value [1, 3] was 15 (14.7%). For the same compound, the “Patients reporting a quality of analgesia assessment of very good or excellent at Week 3” value ([1]; Week 3) was 19.6%, the “Number of events, all opioid-associated adverse events” value [2, 4] was 2549 and the “Number of events, all opioid-associated adverse events (by severity table)” value [2, 4] was 2549. For the same compound, the “Number of events, constipation” value [2, 4] was 576, the “Number of events, constipation, mild” value [2, 4] was 430 and the “Number of events, constipation, moderate” value [2, 4] was 119. For the same compound, the “Number of events, constipation, severe” value [2, 4] was 27, the “Number of events, dizziness” value [2, 4] was 390 and the “Number of events, dizziness, mild” value [2, 4] was 314. For the same compound, the “Number of events, dizziness, moderate” value [2, 4] was 63, the “Number of events, dizziness, severe” value [2, 4] was 13 and the “Number of events, gastrointestinal disorders” value [2, 4] was 1143. For the same compound, the “Number of events, gastrointestinal disorders (by severity table)” value [2, 4] was 1143, the “Number of events, nausea” value [2, 4] was 459 and the “Number of events, nausea, mild” value [2, 4] was 336. For the same compound, the “Number of events, nausea, moderate” value [2, 4] was 93, the “Number of events, nausea, severe” value [2, 4] was 30 and the “Number of events, nervous system disorders” value [2, 4] was 952. For the same compound, the “Number of events, nervous system disorders (by severity table)” value [2, 4] was 952, the “Number of events, pruritus” value [2, 4] was 454 and the “Number of events, pruritus, moderate” value [2, 4] was 93. The “Number of events, pruritus, severe” value [2, 4] was 13, the “Number of events, skin and subcutaneous tissue disorders” value [2, 4] was 454 and the “Number of events, skin and subcutaneous tissue disorders (by severity table)” value [2, 4] was 454. For the same compound, the “Number of events, somnolence” value [2, 4] was 562, the “Number of events, somnolence, mild” value [2, 4] was 390 and the “Number of events, somnolence, moderate” value [2, 4] was 133. For the same compound, the “Number of events, somnolence, severe” value [2, 4] was 39, the “Number of events, vomiting” value [2, 4] was 108 and the “Number of events, vomiting, mild” value [2, 4] was 61. For the same compound, the “Number of events, vomiting, moderate” value [2, 4] was 26, the “Number of events, vomiting, severe” value [2, 4] was 21 and the “% of all events, constipation, mild” value [2, 5] was 16.9%. For the same compound, the “% of all events, constipation, moderate” value [2, 5] was 4.7%, the “% of all events, constipation, severe” value [2, 5] was 1.1% and the “% of all events, dizziness” value [2, 5] was 15.3%. For the same compound, the “% of all events, dizziness, mild” value [2, 5] was 12.3%, the “% of all events, dizziness, moderate” value [2, 5] was 2.5% and the “% of all events, dizziness, severe” value [2, 5] was 0.5%. For the same compound, the “% of all events, gastrointestinal disorders” value [2, 5] was 44.8%, the “% of all events, gastrointestinal disorders (by severity table)” value [2, 5] was 44.8% and the “% of all events, nausea” value [2, 5] was 18.0%. The “% of all events, nausea, mild” value [2, 5] was 13.2%, the “% of all events, nausea, moderate” value [2, 5] was 3.6% and the “% of all events, nausea, severe” value [2, 5] was 1.2%. For the same compound, the “% of all events, nervous system disorders” value [2, 5] was 37.3%, the “% of all events, nervous system disorders (by severity table)” value [2, 5] was 37.3% and the “% of all events, pruritus” value [2, 5] was 17.8%. For the same compound, the “% of all events, pruritus, mild” value [2, 5] was 13.7%, the “% of all events, pruritus, moderate” value [2, 5] was 3.6% and the “% of all events, pruritus, severe” value [2, 5] was 0.5%. For the same compound, the “% of all events, skin and subcutaneous tissue disorders” value [2, 5] was 17.8%, the “% of all events, skin and subcutaneous tissue disorders (by severity table)” value [2, 5] was 17.8% and the “% of all events, somnolence” value [2, 5] was 22.0%. For the same compound, the “% of all events, somnolence, mild” value [2, 5] was 15.3%, the “% of all events, somnolence, moderate” value [2, 5] was 5.2% and the “% of all events, somnolence, severe” value [2, 5] was 1.5%. For the same compound, the “% of all events, vomiting” value [2, 5] was 4.2%, the “% of all events, vomiting, mild” value [2, 5] was 2.4% and the “% of all events, vomiting, moderate” value [2, 5] was 1.0%. The “% of all events, vomiting, severe” value [2, 5] was 0.8%, the “% of patients reporting constipation” value [2, 6] was 59.2% and the “% of patients reporting constipation, maximum severity mild” value [2, 6] was 26.7%. The “% of patients reporting constipation, maximum severity moderate” value [2, 6] was 20.9%, the “% of patients reporting constipation, maximum severity severe” value [2, 6] was 11.7% and the “% of patients reporting dizziness” value [2, 6] was 51.9%. For the same compound, the “% of patients reporting dizziness, maximum severity mild” value [2, 6] was 29.6%, the “% of patients reporting dizziness, maximum severity moderate” value [2, 6] was 16.0% and the “% of patients reporting dizziness, maximum severity severe” value [2, 6] was 6.3%. The “% of patients reporting gastrointestinal disorders” value [2, 6] was 77.7%, the “% of patients reporting gastrointestinal disorders (by maximum severity table)” value [2, 6] was 77.7% and the “% of patients reporting nausea” value [2, 6] was 58.3%. The “% of patients reporting nausea, maximum severity moderate” value [2, 6] was 22.3%, the “% of patients reporting nausea, maximum severity severe” value [2, 6] was 11.7% and the “% of patients reporting nervous system disorders” value [2, 6] was 79.1%. For the same compound, the “% of patients reporting nervous system disorders (by maximum severity table)” value [2, 6] was 79.1%, the “% of patients reporting pruritus, maximum severity mild” value [2, 6] was 28.6% and the “% of patients reporting pruritus, maximum severity moderate” value [2, 6] was 25.2%. The “% of patients reporting pruritus, maximum severity severe” value [2, 6] was 6.3%, the “% of patients reporting somnolence” value [2, 6] was 68.0% and the “% of patients reporting somnolence, maximum severity mild” value [2, 6] was 23.3%. The “% of patients reporting somnolence, maximum severity moderate” value [2, 6] was 29.1%, the “% of patients reporting somnolence, maximum severity severe” value [2, 6] was 15.5% and the “% of patients reporting vomiting, maximum severity mild” value [2, 6] was 9.7%. For the same compound, the “% of patients reporting vomiting, maximum severity moderate” value [2, 6] was 7.8%, the “% of patients reporting vomiting, maximum severity severe” value [2, 6] was 6.8% and the “Number of patients reporting constipation” value [2, 6] was 122. For the same compound, the “Number of patients reporting constipation, maximum severity mild” value [2, 6] was 55, the “Number of patients reporting constipation, maximum severity moderate” value [2, 6] was 43 and the “Number of patients reporting constipation, maximum severity severe” value [2, 6] was 24. The “Number of patients reporting dizziness” value [2, 6] was 107, the “Number of patients reporting dizziness, maximum severity mild” value [2, 6] was 61 and the “Number of patients reporting dizziness, maximum severity moderate” value [2, 6] was 33. The “Number of patients reporting dizziness, maximum severity severe” value [2, 6] was 13, the “Number of patients reporting gastrointestinal disorders” value [2, 6] was 160 and the “Number of patients reporting gastrointestinal disorders (by maximum severity table)” value [2, 6] was 160. The “Number of patients reporting nausea” value [2, 6] was 120, the “Number of patients reporting nausea, maximum severity mild” value [2, 6] was 50 and the “Number of patients reporting nausea, maximum severity moderate” value [2, 6] was 46. For the same compound, the “Number of patients reporting nausea, maximum severity severe” value [2, 6] was 24, the “Number of patients reporting nervous system disorders” value [2, 6] was 163 and the “Number of patients reporting nervous system disorders (by maximum severity table)” value [2, 6] was 163. The “Number of patients reporting pruritus” value [2, 6] was 124, the “Number of patients reporting pruritus, maximum severity mild” value [2, 6] was 59 and the “Number of patients reporting pruritus, maximum severity moderate” value [2, 6] was 52. For the same compound, the “Number of patients reporting pruritus, maximum severity severe” value [2, 6] was 13, the “Number of patients reporting skin and subcutaneous tissue disorders” value [2, 6] was 124 and the “Number of patients reporting skin and subcutaneous tissue disorders (by maximum severity table)” value [2, 6] was 124. The “Number of patients reporting somnolence” value [2, 6] was 140, the “Number of patients reporting somnolence, maximum severity mild” value [2, 6] was 48 and the “Number of patients reporting somnolence, maximum severity moderate” value [2, 6] was 60. The “Number of patients reporting somnolence, maximum severity severe” value [2, 6] was 32, the “Number of patients reporting vomiting” value [2, 6] was 50 and the “Number of patients reporting vomiting, maximum severity mild” value [2, 6] was 20. The “Number of patients reporting vomiting, maximum severity moderate” value [2, 6] was 16 and the “Number of patients reporting vomiting, maximum severity severe” value [2, 6] was 14.
